These results are taken from patent US11497813B2, “Bortezomib conjugates and methods using same” (Frank EBETINO et al., priority 2015, dated 2022).

For data set [1], the system named is osteoclasts. Nature of the data set: Osteoclast formation and bone resorption on bone slices pre-incubated with compound. The class given is cell-based, mouse. On the procedure: FIG. 5A is a scheme of an exemplary synthesis of compound BP-Btz1. FIG. 5B is a series of images of bone slices pre-incubated with 1 μM BP-Btz1, Btz, or bisphosphonate (BP) overnight. Drug solutions were removed and bone slices were washed with PBS extensively. […] (BM) cells from UB^G76V-GFP mice were cultured on bone slices in the presence of M-CSF and RANKL for 9 days. Top images (a): GFP^+ cells were observed under a fluorescence microscope and GFP signal intensity was quantified. Middle images (b): bone slices were fixed and subjected to TRAP staining for osteoclasts (OCs). OC #/slice were counted. Bottom images (c): cells were removed from slices. Toluidine blue staining was performed and pit areas/slice were counted. FIG. 5C is a series of images of murine BM cells cultured and stained for ALP. FIG. 5D is a series of images of human MSCs cultured and stained for ALP. Murine BM cells and human MSCs were cultured in the OB-inducing medium plus different concentrations of BP-Btz1 or Btz for 4 or 6 days, respectively. Cells were stained for ALP. The ALP^+ areas were measured by Image J. *P<0.05 vs. Btz-treated cells.
As a control, the effects of the non-bioactive bisphosphonate (BP) that would be released in the bone compartment were also studied. […] In a pivotal in vitro study, this BP-Btz1 and Btz were independently incubated with bone slices for 24 hours, after which the bone slices were removed and placed in culture wells with fresh media along with osteoclast precursors. […]
1. […] Following proteasome inhibitor administration, Ub^G76V accumulates and GFP fluorescence is readily apparent. GFP^+ OCs were detected at 4 and 8 hrs after adding Btz to OC cultures, which disappeared at 24 hrs. […] The number and area of OCs and resorption pits are assessed. The appearance, intensity and distribution of GFP^+ cells on bone slices and plastic surrounding bone slices during OC formation is observed and recorded. […] Area of ALP^+ and mineralized bone nodule, and the expression levels of OB marker genes (ALP, osteocalcin, Runx2) are measured. […]

Data set [2] has as its system thymus. As to conditions: mice, cited from earlier work.
The test system of data set [3] is fractured mice. Nature of the data set: Open tibial fracture healing in WT mice. The class given is in vivo, mouse. On the procedure: WT mice that received an open tibial fracture were treated with Btz (0.6 mg/kg body weight, ip) or vehicle at day 1, 3, 5, 7, and sacrificed at various days post-fracture. FIG. 2A is an image of the structure of Bortezomib. FIG. 2B is a graph depicting μCT data analyses of callus size from 10 days post-fracture. N+4 mice/group. FIG. 2C is a series of images of representative histology of fractured tibiae stained with alcian blue hematoxylin/orange G eosin showing cartilage (blue) and bone (pink) formation. Histomorphometric measurements were performed with a Visiopharm Imaging Analysis software system. N=3 mice/group. FIG. 2D is a series of graphs depicting data of biomechanical testing of tibiae from 28 days after fracture. N=5 mice/group. FIG. 2E is a series of images of spectra depicting data of immune-phenotyping of callus cells from 7 days post-fracture. FIG. 2F is a series of images of immunoblots depicting protein expression levels of total Ub-proteins and JunB and Runx2 levels in calluses from 10 days post-fracture. *p<0.05 vs. vehicle group.

The subject of data set [4] is fractured aged mice. Nature of the data set: Tibial fracture healing in aged (20-m-old) mice. The class given is in vivo, mouse. On the procedure: 20-m-old B6 mice had tibial fractures and were given Btz (0.6 mg/kg body weight, i.p.) or saline (Ctl) at day 1, 3, and 5 post-fracture 3 times. FIG. 8A is a graph depicting callus volumes for mice subjected to μCT at day 28. FIG. 8B is a graph depicting experimental data from mice subjected to bio-mechanical testing at day 28. FIG. 8C is a graph depicting experimental data of mice sacrificed for histological analyses at day 28. Values are the mean of 6 mice. *P<0.05 vs. saline-treated mice. FIG. 8D is a graph of data from 3-m-old (young) and 20-m-old (aged) mice after tibial fracture surgery and sacrificed at day 14 post-fracture. The % of CD45^−CD105^+Sca-1^+ cells in fracture callus were determined by flow cytometry as depicted in FIG. 7B. Values are the mean of 4 mice. *P<0.05 vs. saline-treated aged mice. #P<0.05 vs. young mice.

Structures are written as SMILES. “Also recorded” adds a separate entry of the source.

With `CC(C)C[C@H](NC(=O)[C@H](Cc1ccccc1)NC(=O)c1cnccn1)B1OCCN(CCOC(=O)NC(P(=O)(O)O)P(=O)(O)O)CCO1` [BP-Btz1], the osteoclast function entry in data set [1] is “maintains its bioactivity on inhibition of OCs; also recorded: inhibits osteoclast function”. Besides, the “Formation and activity of osteoclasts on pre-incubated bone slices” value in data set [1] (bone slices pre-incubated with compound (1 μM, 24 hours), removed, then osteoclast precursors in fresh media) was “significantly reduced”. Further, the “anti-osteoclast activity on bone slices” value in data set [1] (in vitro studies on bone slices, compared with Btz) is on record as “anti-osteoclast activity equivalent to than Btz itself”.
In the case of `CC(C)C[C@H](NC(=O)[C@H](Cc1ccccc1)NC(=O)c1cnccn1)B(O)O` [Btz, [(1R)-3-methyl-1-[[(2S)-1-oxo-3-phenyl-2[(pyrazinylcarbonyl)amino]propyl]amino]butyl] boronic acid], in data set [2] (Btz injection), the splenocytes numbers result is on record as “not”; the “total and CD4+ and CD8+ thymocyte numbers” value was “markedly decreases”. The “number of T cells in the thymus” value in data set [2] (as early as 3 days after administration) is “significantly reduces”. In addition, in data set [3] (0.6 mg/kg ip day 1, 3, 5, 7, JunB and Runx2 in calluses), the “expression of osteoblast positive regulators” value is given as “increases”. In addition, in data set [3] (0.6 mg/kg ip day 1, 3, 5, 7, callus cells), the MSC numbers entry is “increases”. Moreover, in data set [3] (fractured mice), the “Nestin+ MPCs” value was “increased”, the bone strength entry is “increases bone strength” and the callus formation is “accelerates callus formation”. Besides, in data set [3] (short-term treatment), the “Ub-proteins in fracture calluses” value was “accumulation of Ub-proteins” and the fracture healing result was “increases fracture healing”. The fracture repair entry in data set [4] (20-m-old B6 mice, 0.6 mg/kg i.p. day 1, 3, 5) is given as “promotes fracture repair”. Further, in data set [4] (fractured aged mice), the MPCs result is recorded as “increased”, the bone strength entry is listed as “increased” and the callus formation was “increased”.
